The results in this text go back to patent US20090036489A1, “Novel Cyclic Aminophenylalkanoic Acid Derivative” (priority 2005, published 2009).

pEC50: −log10 of the molar value.

A word on the pEC50: it is the EC50 on a negative log10 scale, so that one unit is a factor of ten. A lower pEC50 goes with a large EC50.

The target of the assay is T1, human PPARα (Homo sapiens, UniProt Q07869).
T1 construct: expressed in transfected cells; host or cells: CHO-K1
T1 sequence (Q07869 239-466 limits assumed): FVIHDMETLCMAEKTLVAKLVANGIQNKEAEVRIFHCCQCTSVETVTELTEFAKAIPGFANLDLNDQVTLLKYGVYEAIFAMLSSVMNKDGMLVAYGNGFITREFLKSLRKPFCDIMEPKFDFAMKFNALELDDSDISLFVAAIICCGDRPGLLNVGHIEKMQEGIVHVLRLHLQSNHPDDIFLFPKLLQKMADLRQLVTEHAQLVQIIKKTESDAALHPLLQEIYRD
Put plainly: Activation of human PPARα: GAL4-PPARα LBD luciferase reporter transactivation in CHO-K1 cells. It counts as cell-based. To be noted: CHO-K1 cells co-transfected with GAL4 DNA-binding domain/human PPARα ligand-binding domain fusion, firefly luciferase reporter normalized to Renilla; 20 hours with test compound. The source says:
Activation of Human Peroxisome Proliferator-Activated Receptor α (PPARα)
CHO-K1 cells cultured in Ham's F12 medium supplemented with 10% fetal calf serum (FCS) were co-transfected with a receptor-expression plasmid engineered to express a fusion protein in which the DNA-binding domain of yeast transcription factor GAL4 is fused to the ligand-binding domain of human PPARα (Biochemistry, 1993, 32, 5598), a reporter plasmid (firefly luciferase reporter plasmid, STRATAGENE) and a Renilla luciferase reporter plasmid as an internal control. The plasmids were co-transfected for 2 hours in serum-free medium using Lipofectamine (Invitrogen). Subsequently, the cells were cultured at 37° C. for 20 hours in Ham's F12 medium supplemented with 10% defatted bovine serum and a test compound. The activity of the two luciferases was then measured and firefly luciferase activity was normalized to the internal control Renilla luciferase activity.
Background: Reporter assays use an easily measured gene product as a stand-in for the process of interest.
Consider `Cc1nc(-c2ccc(Cl)cc2)sc1C(=O)NCC1CCCN(c2ccccc2CC(=O)O)C1` (stereo not shown) [Example 8, 2-[3-[[2-(4-chlorophenyl)-4-methylthiazol-5-yl]carbonylaminomethyl]piperidin-1-yl]phenylacetic Acid], for which the pEC50 is 10.00.

In turn, `Cc1nc(-c2ccc(Cl)cc2)sc1C(=O)NCC1CCCN(c2cccc(CC(=O)O)c2)C1` (stereo not shown) [Example 9, 3-[3-[[2-(4-chlorophenyl)-4-methylthiazol-5-yl]carbonylaminomethyl]piperidin-1-yl]phenylacetic acid] gave a pEC50 of 7.35.

Turning to `Cc1nc(-c2ccc(Cl)cc2)sc1C(=O)NC1CCCN(c2cccc(CC(=O)O)c2)C1` (stereo not shown) [Example 11, 3-[3-[[2-(4-chlorophenyl)-4-methylthiazol-5-yl]carbonylamino]piperidin-1-yl]phenylacetic acid], the pEC50 is 7.43.

Compound `Cc1nc(-c2ccc(Cl)cc2)sc1C(=O)NC1CCCN(c2cccc(OC(C)(C)C(=O)O)c2)C1` (stereo not shown) [Example 14, 2-[3-[3-[[2-(4-chlorophenyl)-4-methylthiazol-5-yl]carbonylamino]piperidin-1-yl]phenoxy]-2-methylpropionic acid] had a pEC50 of 7.17.
